According to US20250171423A1, “PHARMACEUTICAL COMPOUNDS FOR THE TREATMENT OF COMPLEMENT MEDIATED DISORDERS” (Achillion Pharmaceuticals, Inc., priority 2020, published 2025):

Target: T1, Human complement C1s enzyme (Homo sapiens, UniProt P09871)
T1 construct: purified from human serum, Complement Technology, Inc; purchased Complement Technology, Inc; host or cells: human serum
T1 sequence (P09871 438-688 limits assumed): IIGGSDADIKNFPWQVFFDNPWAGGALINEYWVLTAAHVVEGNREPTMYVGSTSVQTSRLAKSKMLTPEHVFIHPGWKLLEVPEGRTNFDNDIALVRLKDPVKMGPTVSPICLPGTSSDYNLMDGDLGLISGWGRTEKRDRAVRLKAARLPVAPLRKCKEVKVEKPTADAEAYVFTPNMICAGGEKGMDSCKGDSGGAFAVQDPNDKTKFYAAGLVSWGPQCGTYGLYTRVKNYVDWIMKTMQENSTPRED
T1 sequence (P09871 16-437 partner limits assumed): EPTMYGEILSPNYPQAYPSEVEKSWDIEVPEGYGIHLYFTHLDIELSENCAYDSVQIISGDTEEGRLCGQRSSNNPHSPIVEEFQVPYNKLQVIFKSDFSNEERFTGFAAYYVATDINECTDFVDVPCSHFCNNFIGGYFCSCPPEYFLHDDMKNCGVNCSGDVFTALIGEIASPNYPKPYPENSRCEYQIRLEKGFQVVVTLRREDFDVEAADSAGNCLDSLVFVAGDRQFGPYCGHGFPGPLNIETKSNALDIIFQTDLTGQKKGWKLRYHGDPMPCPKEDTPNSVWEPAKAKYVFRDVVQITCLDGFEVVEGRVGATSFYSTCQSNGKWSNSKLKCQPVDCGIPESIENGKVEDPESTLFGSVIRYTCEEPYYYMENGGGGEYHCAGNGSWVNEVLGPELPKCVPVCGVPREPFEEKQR
Assay: Human C1s Enzyme Assay
Format: biochemical
Conditions: human C1s 1.16 nM, 5 min preincubation, substrate Z-L-Lys-SBzl 100 μM, A405; read-out: C1s Protease Activity
How it was run: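 IC50 values were fitted by nonlinear regression to rates measured as A405 every 30 s for 30 min. The thioester substrate Z-L-Lys-SBzl and Ellman's reagent were each at 100 μM. Serum-derived C1s at 1.16 nM final had 5 min of room-temperature preincubation with compound (pH 7.5 Tris buffer, 1 M NaCl).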

SMILES | IC50
COC[C@@]12C[C@@H]1N(C(=O)CNC(=O)c1ccc(Oc3ccccc3)cc1)[C@H](C(=O)NCc1cc(C(=N)N)cs1)C2 [Compound 20, (1S,3S,5R)-N-((4-carbamimidoylthiophen-2-yl)methyl)-5-(methoxymethyl)-2-((4-phenoxybenzoyl)glycyl)-2-azabicyclo[3.1.0]hexane-3-carboxamide] | < 100 nM
C[C@@]12C[C@@H]1N(C(=O)CNC(=O)c1ccc(Oc3ccccn3)cc1)[C@H](C(=O)NCc1cc(C(=N)N)cs1)C2 [Compound 153, (1S,3S,5S)-N-((4-carbamimidoylthiophen-2-yl)methyl)-5-methyl-2-((4-(pyridin-2-yloxy)benzoyl)glycyl)-2-azabicyclo[3.1.0]hexane-3-carboxamide] | < 100 nM
N=C(N)c1csc(CNC(=O)C2CC3(CCC3)CN2C(=O)CNC(=O)CCCOc2ccccc2)c1 (centres unmarked) [Compound 261, N-((4-carbamimidoylthiophen-2-yl)methyl)-6-((4-phenoxybutanoyl)glycyl)-6-azaspiro[3.4]octane-7-carboxamide] | < 100 nM
C[C@@H](NC(=O)[C@@H]1C[C@@H](OC(F)F)CN1C(=O)CNC(=O)CCCOc1ccc(F)cc1)c1cc(C(=N)N)cs1 [Compound 108, (2S,4R)-N-((R)-1-(4-carbamimidoylthiophen-2-yl)ethyl)-4-(difluoromethoxy)-1-((4-(4-fluorophenoxy)butanoyl)glycyl)pyrrolidine-2-carboxamide] | < 100 nM
CC(COc1ccccc1)CC(=O)NCC(=O)N1CC2(C[C@H]1C(=O)NCc1cc(C(=N)N)cs1)OCCO2 (stereo partly drawn) [Compound 70, (8S)-N-((4-carbamimidoylthiophen-2-yl)methyl)-7-((3-methyl-4-phenoxybutanoyl)glycyl)-1,4-dioxa-7-azaspiro[4.4]nonane-8-carboxamide] | < 100 nM
C[C@@H](NC(=O)[C@@H]1C[C@@H](S(C)(=O)=O)CN1C(=O)CNC(=O)CCCOc1ccc(F)cc1)c1cc(C(=N)N)cs1 [Compound 107, (2S,4R)-N-((R)-1-(4-carbamimidoylthiophen-2-yl)ethyl)-1-((4-(4-fluorophenoxy)-butanoyl)glycyl)-4-(methylsulfonyl)pyrrolidine-2-carboxamide] | < 100 nM
C[C@@]12C[C@@H]1N(C(=O)CNC(=O)CCCOc1ccccc1)[C@H](C(=O)NCc1cc(C(=N)N)c(C(F)(F)F)s1)C2 [Compound 251, (1S,3S,5S)-N-((4-carbamimidoyl-5-(trifluoromethyl)thiophen-2-yl)methyl)-5-methyl-2-((4-phenoxybutanoyl)glycyl)-2-azabicyclo[3.1.0]hexane-3-carboxamide] | > 1000 nM
N=C(N)c1csc([C@H](NC(=O)[C@@H]2CC3(CN2C(=O)CNC(=O)CCCOc2ccccc2)OCCO3)C2CC2)c1 [Compound 177, (S)-N-((R)-(4-carbamimidoylthiophen-2-yl)(cyclopropyl)methyl)-7-((4-phenoxybutanoyl)glycyl)-1,4-dioxa-7-azaspiro[4.4]nonane-8-carboxamide] | > 1000 nM
C[C@@H](NC(=O)[C@@H]1C[C@@H](OC(F)F)CN1C(=O)CNC(=O)c1ccc(C(=O)c2ccccc2)cc1)c1cc(C(=N)N)cs1 [Compound 203, (2S,4R)-1-((4-benzoylbenzoyl)glycyl)-N-((R)-1-(4-carbamimidoylthiophen-2-yl)ethyl)-4-(difluoromethoxy)pyrrolidine-2-carboxamide] | < 100 nM
C[C@@]12C[C@@H]1N(C(=O)CNC(=O)c1ccc(Oc3ccccc3)cc1)[C@H](C(=O)NCc1cc(/C(N)=N/[N+](=O)[O-])cs1)C2 [Compound 11, (1S,3S,5S)-5-methyl-N-((4-((Z)-N′-nitrocarbamimidoyl)thiophen-2-yl)methyl)-2-((4-phenoxybenzoyl)glycyl)-2-azabicyclo[3.1.0]hexane-3-carboxamide] | > 1000 nM
CS[C@@H]1C[C@@H](C(=O)NCc2cc(C(=N)N)cs2)N(C(=O)CNC(=O)c2ccc(Oc3ccccc3)cc2)C1 [Compound 45, (2S,4R)-N-((4-carbamimidoylthiophen-2-yl)methyl)-4-(methylthio)-1-((4-phenoxy-benzoyl)glycyl)pyrrolidine-2-carboxamide] | < 100 nM

The remaining lines, values ahead:

IC50 | SMILES
100 to 1000 nM | N=C(N)c1csc(CNC(=O)[C@@H]2C[C@@H](C3CCCCC3)CN2C(=O)CNC(=O)c2ccc(Oc3ccccc3)cc2)c1 [Compound 61, (2S,4S)-N-((4-carbamimidoylthiophen-2-yl)methyl)-4-cyclohexyl-1-((4-phenoxy-benzoyl)glycyl)pyrrolidine-2-carboxamide]
100 to 1000 nM | C[C@@]12C[C@@H]1N(C(=O)CNC(=O)CCCOc1ccc(S(C)(=N)=O)cc1)[C@H](C(=O)NCc1cc(C(=N)N)cs1)C2 (stereo partly drawn) [Compound 76, (1S,3S,5S)-N-((4-carbamimidoylthiophen-2-yl)methyl)-5-methyl-2-((4-(4-(S-methyl-sulfonimidoyl)phenoxy)butanoyl)glycyl)-2-azabicyclo[3.1.0]hexane-3-carboxamide]
< 100 nM | C[C@@]12C[C@@H]1N(C(=O)CNC(=O)CCCOc1cccc3ccccc13)[C@H](C(=O)NCc1cc(C(=N)N)cs1)C2 [Compound 207, (1S,3S,5S)-N-((4-carbamimidoylthiophen-2-yl)methyl)-5-methyl-2-((4-(naphthalen-1-yloxy)butanoyl)glycyl)-2-azabicyclo[3.1.0]hexane-3-carboxamide]
< 100 nM | C[C@@]12C[C@@H]1N(C(=O)CNC(=O)c1ccc(Oc3ccc(C(F)(F)F)cn3)cc1)[C@H](C(=O)NCc1cc(C(=N)N)cs1)C2 [Compound 154, (1S,3S,5S)-N-((4-carbamimidoylthiophen-2-yl)methyl)-5-methyl-2-((4-((5-(trifluoromethyl)pyridin-2-yl)oxy)benzoyl)glycyl)-2-azabicyclo[3.1.0]hexane-3-carboxamide]
< 100 nM | C[C@@]12C[C@@H]1N(C(=O)CNC(=O)c1ccc(Oc3ccccc3)cc1)[C@H](C(=O)NCc1ncc(C(=N)N)s1)C2 [Compound 235, (1S,3S,5S)-N-((5-carbamimidoylthiazol-2-yl)methyl)-5-methyl-2-((4-phenoxybenzoyl)glycyl)-2-azabicyclo[3.1.0]hexane-3-carboxamide]
> 1000 nM | N=C(N)c1csc([C@@H](NC(=O)[C@@H]2CC3(CN2C(=O)CNC(=O)CCCOc2ccccc2)OCCO3)c2ccccc2)c1 [Compound 217, (S)-N-((S)-(4-carbamimidoylthiophen-2-yl)(phenyl)methyl)-7-((4-phenoxybutanoyl)glycyl)-1,4-dioxa-7-azaspiro[4.4]nonane-8-carboxamide]
< 100 nM | N=C(N)c1csc(CNC(=O)[C@@H]2C[C@H](c3ccc(F)cc3)CN2C(=O)CNC(=O)CCCOc2ccccc2)c1 [Compound 159, (2S,4R)-N-((4-carbamimidoylthiophen-2-yl)methyl)-4-(4-fluorophenyl)-1-((4-phenoxybutanoyl)glycyl)pyrrolidine-2-carboxamide]
100 to 1000 nM | C[C@@]12C[C@@H]1N(C(=O)CNC(=O)c1ccc(Oc3ccccc3)cc1)[C@H](C(=O)NCc1ccc(N)nc1)C2 [Compound 5]
< 100 nM | N=C(N)c1csc(CNC(=O)[C@@H]2CCC(=O)N2C(=O)CNC(=O)c2ccc(Oc3ccccc3)cc2)c1 [Compound 7, (S)-N-((4-carbamimidoylthiophen-2-yl)methyl)-5-oxo-1-((4-phenoxybenzoyl)glycyl)-pyrrolidine-2-carboxamide]
